Results taken from patent publication US20240310364A1, “TUNABLE DYNAMIC AND NON-DYNAMIC HYDROGEL SYSTEMS” (The Johns Hopkins University, priority 2021, published 2024).

How the values were obtained:
ECFCs [1] = experiment: Inhibition studies (FI 14, GM6001, blebbistatin) in ECFC-loaded D-hydrogels; type: cell-based, human; design: ECFC aspect ratio (cell spreading) / integrin cluster size and area covered / integrin intensity and number / cellular protrusions and filopodia / sprouting: unit of the concentration uncertain; conditions: for vascular bed formation (tube length and volume): 3 days, blebbistatin 60 mM, FI 14 10 mM
Procedure: For 2D screening of the FI 14 (FI-14, R 95.0%; Sigma-Aldrich), the ECFCs were seeded into a 96-well plate at a cell density of 10000 cells/well in EGM-2 media (Lonza) with 10% FBS (Hyclone). After 1 day of culture, 100 μL of EGM-2 media containing increased concentrations of FI 14 ranging from 0 to 10 μM were added per well and culture for additional 24 hr following by staining for phospho-FAK (Tyr397;ThermoFisher Scientific) as described below. Biological triplicates were tested for each FI 14 concentrations. For inhibition studies, ECFCs were suspended in the hydrogel precursor as above with the addition of 10 mM of FI-14 (Sigma-Aldrich) or GM6001 (1 mg mL^−1; Sigma-Aldrich), 60 mM Blebbistain (Sigma-Aldrich) or vehicle control (DMSO; Sigma-Aldrich). The corresponding culture media also supplied with the corresponding inhibitor/vehicle control at the same concentration. Media was replenish every 24 h till analysis.

mUPS spheroids = experiment: Sarcoma spheroid encapsulation in hydrogels; type: cell-based, murine; conditions: co-encapsulated in quick-relaxing hydrogels
Procedure: Spheroids were formed using hanging droplet culture. Briefly, cell monolayers were grown until ˜75% confluent, rinsed with PBS, and passaged with 0.25% Trypsin-EDTA. Hanging droplets of 10,000 cells/20 μL droplet were formed on the inside of the cover of a 60 mm […]. 10 mL of PBS were placed in the bottom of the dish to act as a hydration chamber. Spheroids were cultured as hanging droplets for three days prior to encapsulation in hydrogels. 10 μl of media was added to each droplet on the second day of droplet culture.
For spheroid encapsulation, a similar protocol was followed with the adjustments for spheroids. We first collected 12 spheroids in a 1.5 mL Eppendorf tube, centrifuged for 3 minutes, and then pipetted off the media. All subsequent steps were identical to single-cell encapsulation. Cells in hydrogels were cultured under standard conditions and daily media changes of 200 μL.
Light microscopy images of encapsulated cells were recorded daily at 4×, 10×, and 20× magnifications starting at post-encapsulation (PE) Day 0. For spheroid area quantification, 10× images were grouped by individual spheroid and the area of the spheroid was manually traced in FIJI (NIH) for each day. Days 1-3 were normalized to the size of the spheroid on Day 0. […]

ECFCs [2] = experiment: Inhibition studies (FI 14, GM6001, blebbistatin) in ECFC-loaded D-hydrogels; type: cell-based, human; design: unit of the concentration uncertain; conditions: 0.1 (unit uncertain), versus controls
[3] = 60 (unit uncertain), 24 h, ECFCs in D-hydrogels

SMILES | cellular protrusions and filopodia (ECFCs [1]; [3]) | integrin cluster size and area covered (ECFCs [1]; [3]) | integrin intensity and number (ECFCs [1]; [3]) | vascular bed formation (tube length and volume) (ECFCs [1]; ECFCs in D-hydrogels) | spheroid size under contractility inhibition (mUPS spheroids) | ECFC aspect ratio (cell spreading) (ECFCs [1]; 10 (unit uncertain), 24 h, versus control D-hydrogels) | sprouting (ECFCs [1]; 10 (unit uncertain), ECFCs in D-hydrogels) | phosphorylation of MLC (ECFCs [1]; 24 h, ECFCs in D-hydrogels) | integrin β1 and integrin aV mRNA expression (ECFCs [1]; 24 h, versus D-hydrogel controls) | MMP1 and MMP9 mRNA levels (ECFCs [1]; 24 h, versus untreated controls) | MT1-MMP expression at protein and mRNA levels (ECFCs [1]; 24 h in culture) | stiffness of ECFC-loaded D-hydrogels (ECFCs [1]; day 3, versus without MMP inhibitor) | tubulogenesis of ECFCs (ECFCs [2])
Cc1ccc2c(c1)C(=O)C1(O)CCN(c3ccccc3)C1=N2 (centres unmarked) [blebbistatin] | decrease | significant decrease | did not affect | shorter tube length and reduced vessel volume | not sufficient to fully mirror spheroid shrinkage | – | – | – | – | – | – | – | –
Nc1cc(N)c(N)cc1N [FI 14] | – | – | – | decrease in tube length and volume | – | cell spreading is reduced | significant reduction | reduces the phosphorylation of MLC | downregulation | significant reduction | significantly lower expression | – | –
CNC(=O)[C@H](Cc1c[nH]c2ccccc12)NC(=O)[C@@H](CC(=O)NO)CC(C)C [GM6001] | – | – | – | – | – | – | – | – | – | – | – | significantly stiffer | inhibited
